# Source: ChEMBL document CHEMBL4257567, “Design of novel lipidated peptidomimetic conjugates for targeting EGFR heterodimerization in HER2 + cancer” (Bioorg Med Chem Lett, 2018)
# pIC50: −log10 of the molar value. The source made the active and inactive calls. No cut-off for these calls is given here. Where a SMILES comes first, the peptide text is derived from it. The star is where a group is joined. 6FAM = O=C1OC2(c3ccc(O)cc3Oc3cc(O)ccc32)c2cc(C(=O)*)ccc21; Stearoyl = CCCCCCCCCCCCCCCCCC(=O)*
# Assays:
# MCF-10A = assay: Antiproliferative activity against human MCF10A cells after 72 hrs by CellTiter-Glo assay; type: cell-based
# MCF7 = assay: Antiproliferative activity against human MCF7 cells after 72 hrs by CellTiter-Glo assay; type: functional, cell-based; conditions: MCF7, 72 h
# A549 = assay: Antiproliferative activity against human A549 cells after 72 hrs by CellTiter-Glo assay; type: functional, cell-based; conditions: A549, 72 h
# BT-474 = assay: Antiproliferative activity against human BT474 cells after 72 hrs by CellTiter-Glo assay; type: functional, cell-based; conditions: BT-474, 72 h
# Calu-3 = assay: Antiproliferative activity against human Calu3 cells after 72 hrs by CellTiter-Glo assay; type: functional, cell-based; conditions: Calu-3, 72 h
# [1] = target: Receptor tyrosine-protein kinase erbB-2 (Homo sapiens) (UniProt P04626); assay: Inhibition of Stearic acid-Gly-Arg-(S)Anapa-Phe-Asp-Gly-Gly-Gly-Lys-OH (FAM Lys side chain) binding to HER2 domain-4 in human BT474 cells after 45 mins by fluorescence assay; type: cell-based
# Chain of Receptor tyrosine-protein kinase erbB-2 (Homo sapiens) (P04626 whole entry, the tested form may be a part): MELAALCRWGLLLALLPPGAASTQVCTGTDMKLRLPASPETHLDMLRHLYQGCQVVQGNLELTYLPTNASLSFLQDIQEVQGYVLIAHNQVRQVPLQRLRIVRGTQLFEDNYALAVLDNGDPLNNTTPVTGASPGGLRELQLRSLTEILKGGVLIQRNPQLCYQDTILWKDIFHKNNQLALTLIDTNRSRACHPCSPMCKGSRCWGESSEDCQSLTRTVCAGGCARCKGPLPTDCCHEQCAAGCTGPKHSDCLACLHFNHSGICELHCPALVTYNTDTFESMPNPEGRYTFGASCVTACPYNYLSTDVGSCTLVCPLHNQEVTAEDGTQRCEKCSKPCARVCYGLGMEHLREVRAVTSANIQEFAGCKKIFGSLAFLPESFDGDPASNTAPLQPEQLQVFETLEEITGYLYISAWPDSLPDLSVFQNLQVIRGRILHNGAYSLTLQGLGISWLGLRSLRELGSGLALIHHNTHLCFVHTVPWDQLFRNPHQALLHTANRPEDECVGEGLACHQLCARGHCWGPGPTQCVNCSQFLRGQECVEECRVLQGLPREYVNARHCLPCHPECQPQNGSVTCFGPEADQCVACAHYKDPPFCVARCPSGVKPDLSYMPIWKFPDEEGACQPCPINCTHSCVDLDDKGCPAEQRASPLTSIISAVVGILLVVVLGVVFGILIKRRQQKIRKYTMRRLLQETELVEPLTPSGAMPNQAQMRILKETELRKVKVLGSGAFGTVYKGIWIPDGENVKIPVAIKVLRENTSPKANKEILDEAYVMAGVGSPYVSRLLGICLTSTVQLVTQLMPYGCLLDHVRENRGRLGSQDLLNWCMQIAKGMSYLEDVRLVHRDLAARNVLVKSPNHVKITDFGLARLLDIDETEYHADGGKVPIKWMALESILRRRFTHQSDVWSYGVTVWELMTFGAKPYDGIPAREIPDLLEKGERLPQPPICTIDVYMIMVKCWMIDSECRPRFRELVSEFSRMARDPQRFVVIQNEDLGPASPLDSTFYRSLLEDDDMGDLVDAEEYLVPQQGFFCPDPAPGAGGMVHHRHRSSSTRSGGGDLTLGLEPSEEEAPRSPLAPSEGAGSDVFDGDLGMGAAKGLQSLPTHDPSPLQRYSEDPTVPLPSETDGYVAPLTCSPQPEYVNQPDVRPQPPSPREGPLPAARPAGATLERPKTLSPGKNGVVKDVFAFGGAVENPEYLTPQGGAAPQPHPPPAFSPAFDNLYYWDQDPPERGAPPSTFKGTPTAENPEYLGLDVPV
# [2] = target: Receptor tyrosine-protein kinase erbB-2 (Homo sapiens) (UniProt P04626); assay: Binding affinity to HER2 extracellular domain (unknown origin) by SPR analysis
# [3] = target: Receptor tyrosine-protein kinase erbB-2 (Homo sapiens) (UniProt P04626); assay: Binding affinity to HER2 in human BT474 cells assessed as inhibition of HER2:HER3 heterodimerization at 1 to 5 uM after 48 hrs by DAPI staining based proximity ligation assay; type: cell-based
# [4] = Stability in human serum after 24 hrs by HPLC analysis; type: ADME, cell-free
# [5] = target: Receptor tyrosine-protein kinase erbB-2 (Homo sapiens) (UniProt P04626); assay: Inhibition of Stearic acid-Gly-Arg-(S)Anapa-Phe-Asp-Gly-Gly-Gly-Lys-OH (FAM Lys side chain) binding to HER2 domain-4 in human BT474 cells at 0.5 to 100 uM after 1 hr by DAPI staining based microscopic method; type: cell-based
# [6] = Half life in human serum by HPLC analysis; type: ADME, cell-free
# [7] = target: Receptor tyrosine-protein kinase erbB-2 (Homo sapiens) (UniProt P04626); assay: Inhibition of FITC-aminocaproic acid-Arg-(S)Anapa-Phe-OH binding to HER2 domain-4 in human BT474 cells after 45 mins by fluorescence assay; type: cell-based
# [8] = Stability in human serum after 24 hrs by MALDI-TOF-MS analysis; type: ADME, cell-free
# [9] = target: Receptor tyrosine-protein kinase erbB-2 (Homo sapiens) (UniProt P04626); assay: Inhibition of FITC-aminocaproic acid-Arg-(S)Anapa-Phe-OH binding to HER2 domain-4 in human BT474 cells at 0.5 to 200 uM after 45 mins by fluorescence assay; type: cell-based
# [10] = target: Receptor tyrosine-protein kinase erbB-2 (Homo sapiens) (UniProt P04626); assay: Binding affinity to HER2 extracellular domain (unknown origin) at 25 to 100 uM by SPR analysis
# [11] = target: Receptor tyrosine-protein kinase erbB-2 (Homo sapiens) (UniProt P04626); assay: Binding affinity to HER2 in human BT474 cells assessed as receptor internalization at 0.5 uM after 2 hrs by DAPI/Lysotracker staining based microscopic method; type: cell-based
# [12] = target: Receptor tyrosine-protein kinase erbB-2 (Homo sapiens) (UniProt P04626); assay: Binding affinity to HER2 in human BT474 cells at 0.5 uM after 30 mins by DAPI staining based microscopic method; type: cell-based
pIC50 (MCF7),pIC50 (A549),pIC50 (BT-474),pIC50 (Calu-3),Compound,pIC50 (MCF-10A),also measured
< 4.46,6.00,5.85,5.81,CCCCCCCCCCCCCCCC(=O)N[C@@H](CCCNC(=N)N)C(=O)N[C@@H](CC(=O)N[C@@H](Cc1ccccc1)C(=O)O)c1cccc2ccccc12,< 4.46,
,,5.85,,CCCCCCCCCCCCCCCC(=O)N[C@@H](CCCNC(=N)N)C(=O)N[C@@H](CC(=O)N[C@@H](CCCCN)C(=O)O)c1cccc2ccccc12,,
,,5.92,,CCCCCCCCCCCCCCCCCC(=O)N[C@@H](CCCNC(=N)N)C(=O)N[C@@H](CC(=O)N[C@@H](CCCCN)C(=O)O)c1cccc2ccccc12,,

# Second part, the compound before the results:
Compound,pIC50 (MCF7),pIC50 (A549),pIC50 (BT-474),pIC50 (Calu-3),pIC50 (MCF-10A),also measured
CCCCCCCCCCCCCCCCCC(=O)N[C@@H](CCCNC(=N)N)C(=O)N[C@@H](CC(=O)N[C@@H](Cc1ccccc1)C(=O)O)c1cccc2ccccc12,< 4.46,5.93,6.00,5.84,< 4.46,inhibition [1]: Dose-dependent effect; Activity [2]: Dose-dependent effect; inhibition [3]: Active; Stability [4]: Stable; inhibition [5]: Active; half-life [6]: 5 h; inhibition [7]: Dose-dependent effect; Stability [8]: Stable
NCCCC[C@H](N)C(=O)Nc1cccc(-c2ccccc2)c1CCC(=O)N[C@@H](Cc1ccccc1)C(=O)O,< 4.46,< 4.46,< 4.46,< 4.46,,inhibition [9]: inactive; Activity [10]: inactive
CCCCCCCCCCCCCCCCCC(=O)NCC(=O)N[C@@H](CCCNC(=N)N)C(=O)N[C@@H](C)C(=O)N[C@@H](C)C(=O)N[C@@H](CC(C)C)C(=O)NCC(=O)NCC(=O)NCC(=O)N[C@@H](CCCCNC(=O)c1ccc2c(c1)C1(OC2=O)c2ccc(O)cc2Oc2cc(O)ccc21)C(=O)O (Stearoyl-GRAALGGGK(6FAM)-OH),,,,,,Activity [11]: inactive; Activity [12]: inactive
